Data taken from US10004701B2, “Methods and compositions for treating infection” (UNIVERSITY OF ROCHESTER, priority 2012, dated 2018).
Structures can show the parent of a compound that is named as a salt. Where two headings read alike, the source gives them in different places.

Legend:
Test in all cases: AK assay 384-well format, Prestwick library screening
K. pneumoniae = format: cell-based, Klebsiella pneumoniae; details: Klebsiella pneumoniae, 3 h
E. coli = format: cell-based, Escherichia coli; details: Escherichia coli, 3 h, 50 μM final drug concentration
P. aeruginosa = format: cell-based, Pseudomonas aeruginosa; details: Pseudomonas aeruginosa, 3 h
[1] = system: S. aureus strain USA300-0114; format: cell-based, Staphylococcus aureus; details: Staphylococcus aureus, USA300, 3 h
E. faecium = format: cell-based, Enterococcus faecium; details: Enterococcus faecium, 3 h
E. cloacae = format: cell-based, Enterobacter cloacae; details: Enterobacter cloacae, 3 h
[2] = system: A. baumannii strain 98-37-09; format: cell-based, Acinetobacter baumannii; details: Acinetobacter baumannii, 983709, 3 h
[3] = 50 μM final drug concentration, 384-well format, cutoff for positive-scoring molecules 3-fold increase, read-out: AK-based Prestwick Library Screening Results, K. pneumoniae (increase in extracellular AK activity)
[4] = 384-well format, cutoff for positive-scoring molecules 3-fold increase, read-out: AK-based Prestwick Library Screening Results, E. coli (increase in extracellular AK activity)
[5] = 50 μM final drug concentration, 384-well format, cutoff for positive-scoring molecules 3-fold increase, read-out: AK-based Prestwick Library Screening Results, P. aeruginosa (increase in extracellular AK activity)
[6] = 50 μM final drug concentration, 384-well format, cutoff for positive-scoring molecules 3-fold increase, read-out: AK-based Prestwick Library Screening Results, S. aureus (increase in extracellular AK activity)
[7] = 50 μM final drug concentration, 384-well format, cutoff for positive-scoring molecules 3-fold increase, read-out: AK-based Prestwick Library Screening Results, E. faecium (increase in extracellular AK activity)
[8] = 50 μM final drug concentration, 384-well format, cutoff for positive-scoring molecules 3-fold increase, read-out: AK-based Prestwick Library Screening Results, E. cloacae (increase in extracellular AK activity)
[9] = 50 μM final drug concentration, 384-well format, cutoff for positive-scoring molecules 3-fold increase, read-out: AK-based Prestwick Library Screening Results, A. baumannii (increase in extracellular AK activity)
[10] = 50 μM final drug concentration, planktonic, cutoff for positive-scoring molecules 3-fold increase, read-out: AK-based Prestwick Library Screening Results, K. pneumoniae (fold increase in extracellular AK activity)
[11] = planktonic, cutoff for positive-scoring molecules 3-fold increase, read-out: AK-based Prestwick Library Screening Results, E. coli (fold increase in extracellular AK activity)
[12] = 50 μM final drug concentration, planktonic, cutoff for positive-scoring molecules 3-fold increase, read-out: AK-based Prestwick Library Screening Results, P. aeruginosa (fold increase in extracellular AK activity)
[13] = 50 μM final drug concentration, planktonic, cutoff for positive-scoring molecules 3-fold increase, read-out: AK-based Prestwick Library Screening Results, S. aureus (fold increase in extracellular AK activity)
[14] = 50 μM final drug concentration, planktonic, cutoff for positive-scoring molecules 3-fold increase, read-out: AK-based Prestwick Library Screening Results, E. faecium (fold increase in extracellular AK activity)
[15] = 50 μM final drug concentration, planktonic, cutoff for positive-scoring molecules 3-fold increase, read-out: AK-based Prestwick Library Screening Results, E. cloacae (fold increase in extracellular AK activity)
[16] = 50 μM final drug concentration, planktonic, cutoff for positive-scoring molecules 3-fold increase, read-out: AK-based Prestwick Library Screening Results, A. baumannii (fold increase in extracellular AK activity)

In the case of `CN1CCC(=C2c3ccccc3Sc3ccccc32)CC1` [Pimethixene maleate], the fold induction at 50 µM (K. pneumoniae; planktonic K. pneumoniae, 50 μM final drug concentration, 384-well, […], read-out: AK-based Prestwick Library Screening Results: K. pneumoniae (increase in extracellular AK activity)) is reported as 1.2, the fold induction at 50 µM (E. coli; planktonic E. coli, 384-well, […], read-out: AK-based Prestwick Library Screening Results: E. coli (increase in extracellular AK activity)) is reported as 1.4 and the fold induction at 50 µM (P. aeruginosa; planktonic P. aeruginosa, 50 μM final drug concentration, 384-well, […], read-out: AK-based Prestwick Library Screening Results: P. aeruginosa (increase in extracellular AK activity)) is reported as 1.1. For the same compound, the fold induction at 50 µM ([1]; planktonic S. aureus, 50 μM final drug concentration, 384-well, […], read-out: AK-based Prestwick Library Screening Results: S. aureus (increase in extracellular AK activity)) was 0.9, the fold induction at 50 µM (E. faecium; planktonic E. faecium, 50 μM final drug concentration, 384-well, […], read-out: AK-based Prestwick Library Screening Results: E. faecium (increase in extracellular AK activity)) was 1.1 and the fold induction at 50 µM (E. cloacae; planktonic E. cloacae, 50 μM final drug concentration, 384-well, […], read-out: AK-based Prestwick Library Screening Results: E. cloacae (increase in extracellular AK activity)) was 1.4. For the same compound, the fold induction at 50 µM ([2]; planktonic A. baumannii, 50 μM final drug concentration, 384-well, […], read-out: AK-based Prestwick Library Screening Results: A. baumannii (increase in extracellular AK activity)) was 1.1.
`O=c1[nH]c2ccccc2n1C1CCN(CCCC(c2ccc(F)cc2)c2ccc(F)cc2)CC1` [Pimozide] was tested, and the fold induction at 50 µM (K. pneumoniae; planktonic K. pneumoniae, 50 μM final drug concentration, 384-well, cutoff for positive-scoring molecules 3-fold increase, read-out: AK-based Prestwick Library Screening Results: K. pneumoniae (increase in extracellular AK activity)) was 1.3, the fold induction at 50 µM (E. coli; planktonic E. coli, 384-well, cutoff for positive-scoring molecules 3-fold increase, read-out: AK-based Prestwick Library Screening Results: E. coli (increase in extracellular AK activity)) was 1.7 and the fold induction at 50 µM (P. aeruginosa; planktonic P. aeruginosa, 50 μM final drug concentration, 384-well, cutoff for positive-scoring molecules 3-fold increase, read-out: AK-based Prestwick Library Screening Results: P. aeruginosa (increase in extracellular AK activity)) was 1.3. The fold induction at 50 µM ([1]; planktonic S. aureus, 50 μM final drug concentration, 384-well, cutoff for positive-scoring molecules 3-fold increase, read-out: AK-based Prestwick Library Screening Results: S. aureus (increase in extracellular AK activity)) was 2.3, the fold induction at 50 µM (E. faecium; planktonic E. faecium, 50 μM final drug concentration, 384-well, cutoff for positive-scoring molecules 3-fold increase, read-out: AK-based Prestwick Library Screening Results: E. faecium (increase in extracellular AK activity)) was 1.3 and the fold induction at 50 µM (E. cloacae; planktonic E. cloacae, 50 μM final drug concentration, 384-well, cutoff for positive-scoring molecules 3-fold increase, read-out: AK-based Prestwick Library Screening Results: E. cloacae (increase in extracellular AK activity)) was 1.2. For the same compound, the fold induction at 50 µM ([2]; planktonic A. baumannii, 50 μM final drug concentration, 384-well, cutoff for positive-scoring molecules 3-fold increase, read-out: AK-based Prestwick Library Screening Results: A. baumannii (increase in extracellular AK activity)) was 8.7.
Compound `CC(N/C(=N\C#N)Nc1ccncc1)C(C)(C)C` (stereo not drawn) [Pinacidil] has a fold induction at 50 µM (K. pneumoniae; [3]) of 0.5, a fold induction at 50 µM (E. coli; [4]) of 0.5 and a fold induction at 50 µM (P. aeruginosa; [5]) of 0.5. The fold induction at 50 µM [1, 6] was 0.5, the fold induction at 50 µM (E. faecium; [7]) was 0.9 and the fold induction at 50 µM (E. cloacae; [8]) was 0.6. The fold induction at 50 µM [2, 9] was 0.5.
In the case of `CC(C)NCC(O)COc1cccc2[nH]ccc12` (stereo not drawn) [Pindolol], the fold induction at 50 µM (K. pneumoniae; [3]) is reported as 0.6, the fold induction at 50 µM (E. coli; [4]) is reported as 0.5 and the fold induction at 50 µM (P. aeruginosa; [5]) is reported as 0.4. The fold induction at 50 µM [1, 6] was 0.5, the fold induction at 50 µM (E. faecium; [7]) was 1 and the fold induction at 50 µM (E. cloacae; [8]) was 0.4. It also gave a fold induction at 50 µM [2, 9] of 0.5.
Work on `CCn1cc(C(=O)O)c(=O)c2cnc(N3CCNCC3)nc21` [Pipemidic acid] yielded a fold induction at 50 µM (K. pneumoniae; 50 μM final drug concentration, planktonic, […], read-out: AK-based Prestwick Library Screening Results, K. pneumoniae (fold increase in extracellular AK activity)) of 1.7, a fold induction at 50 µM (E. coli; planktonic, […], read-out: AK-based Prestwick Library Screening Results, E. coli (fold increase in extracellular AK activity)) of 14.7 and a fold induction at 50 µM (P. aeruginosa; 50 μM final drug concentration, planktonic, […], read-out: AK-based Prestwick Library Screening Results, P. aeruginosa (fold increase in extracellular AK activity)) of 0.9. It also gave a fold induction at 50 µM ([1]; 50 μM final drug concentration, planktonic, […], read-out: AK-based Prestwick Library Screening Results, S. aureus (fold increase in extracellular AK activity)) of 0.7, a fold induction at 50 µM (E. faecium; 50 μM final drug concentration, planktonic, […], read-out: AK-based Prestwick Library Screening Results, E. faecium (fold increase in extracellular AK activity)) of 1.1 and a fold induction at 50 µM (E. cloacae; 50 μM final drug concentration, planktonic, […], read-out: AK-based Prestwick Library Screening Results, E. cloacae (fold increase in extracellular AK activity)) of 1. It also gave a fold induction at 50 µM ([2]; 50 μM final drug concentration, planktonic, […], read-out: AK-based Prestwick Library Screening Results, A. baumannii (fold increase in extracellular AK activity)) of 0.9.
For `CC[N+]1(C)CCCC(OC(=O)C(O)(c2ccccc2)c2ccccc2)C1` (stereo not drawn) [Pipenzolate bromide], the fold induction at 50 µM (K. pneumoniae; [10]) was 0.7, the fold induction at 50 µM (E. coli; [11]) was 0.9 and the fold induction at 50 µM (P. aeruginosa; [12]) was 0.8. The fold induction at 50 µM [1, 13] was 0.8, the fold induction at 50 µM (E. faecium; [14]) was 0.9 and the fold induction at 50 µM (E. cloacae; [15]) was 0.9. It also gave a fold induction at 50 µM [2, 16] of 0.7.
`CC(=O)c1ccc2c(c1)N(CCCN1CCC(CCO)CC1)c1ccccc1S2` [Piperacetazine] gave a fold induction at 50 µM (K. pneumoniae; 50 μM final drug concentration, cutoff for positive-scoring molecules 3-fold increase, read-out: AK-based Prestwick Library Screening Results, K. pneumoniae (fold increase in extracellular AK activity)) of 0.5, a fold induction at 50 µM (E. coli; cutoff for positive-scoring molecules 3-fold increase, read-out: AK-based Prestwick Library Screening Results, E. coli (fold increase in extracellular AK activity)) of 0.5 and a fold induction at 50 µM (P. aeruginosa; 50 μM final drug concentration, cutoff for positive-scoring molecules 3-fold increase, read-out: AK-based Prestwick Library Screening Results, P. aeruginosa (fold increase in extracellular AK activity)) of 0.5. The fold induction at 50 µM ([1]; 50 μM final drug concentration, cutoff for positive-scoring molecules 3-fold increase, read-out: AK-based Prestwick Library Screening Results, S. aureus (fold increase in extracellular AK activity)) was 0.5, the fold induction at 50 µM (E. faecium; 50 μM final drug concentration, cutoff for positive-scoring molecules 3-fold increase, read-out: AK-based Prestwick Library Screening Results, E. faecium (fold increase in extracellular AK activity)) was 0.9 and the fold induction at 50 µM (E. cloacae; 50 μM final drug concentration, cutoff for positive-scoring molecules 3-fold increase, read-out: AK-based Prestwick Library Screening Results, E. cloacae (fold increase in extracellular AK activity)) was 0.4. It also gave a fold induction at 50 µM ([2]; 50 μM final drug concentration, cutoff for positive-scoring molecules 3-fold increase, read-out: AK-based Prestwick Library Screening Results, A. baumannii (fold increase in extracellular AK activity)) of 0.6.
With `CCN1CCN(C(=O)N[C@@H](C(=O)N[C@@H]2C(=O)N3[C@@H]2SC(C)(C)[C@@H]3C(=O)O)c2ccccc2)C(=O)C1=O` [Piperacillin sodium salt] the fold induction at 50 µM (K. pneumoniae; [10]) was 2.3, the fold induction at 50 µM (E. coli; [11]) was 12.6 and the fold induction at 50 µM (P. aeruginosa; [12]) was 8.7. For the same compound, the fold induction at 50 µM [1, 13] was 0.4, the fold induction at 50 µM (E. faecium; [14]) was 0.9 and the fold induction at 50 µM (E. cloacae; [15]) was 1.3. It also gave a fold induction at 50 µM [2, 16] of 3.3.
`CCN1CCCC(OC(=O)C(c2ccccc2)c2ccccc2)C1` (stereo not drawn) [Piperidolate hydrochloride] was tested, and the fold induction at 50 µM (K. pneumoniae; read-out: AK-based Prestwick library screening result, K. pneumoniae (fold increase in extracellular AK activity)) was 0.6, the fold induction at 50 µM (E. coli; planktonic E. coli, positive cutoff 3-fold increase, read-out: AK-based Prestwick library screening result, E. coli (fold increase in extracellular AK activity)) was 0.7 and the fold induction at 50 µM (P. aeruginosa; read-out: AK-based Prestwick library screening result, P. aeruginosa (fold increase in extracellular AK activity)) was 0.7. For the same compound, the fold induction at 50 µM ([1]; read-out: AK-based Prestwick library screening result, S. aureus (fold increase in extracellular AK activity)) was 0.6, the fold induction at 50 µM (E. faecium; read-out: AK-based Prestwick library screening result, E. faecium (fold increase in extracellular AK activity)) was 1 and the fold induction at 50 µM (E. cloacae; read-out: AK-based Prestwick library screening result, E. cloacae (fold increase in extracellular AK activity)) was 0.7. For the same compound, the fold induction at 50 µM ([2]; read-out: AK-based Prestwick library screening result, A. baumannii (fold increase in extracellular AK activity)) was 0.6.
